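Interpolation was linear, between the two tested concentrations surrounding the appropriate level; five concentrations were tested over 48 hours in 96-well plates. Here, GI50 denotes the concentration required for 50% inhibition of growth.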 Active and inactive are the calls of the source. No stated cut-off is given here; in the data, active = GI50 up to about 1.1 µM and inactive = higher.
Tests used:
Assay in all cases: inhibition of tumour cell growth, NCI panel, 48 h
[1] = system: 786-0
[2] = system: A498
[3] = system: A549
[4] = system: ACHN
[5] = system: BT-549
[6] = system: CAKI-1
[7] = system: CCRF-CEM
[8] = system: COLO 205
[9] = system: DLD-1
[10] = system: DMS-114
[11] = system: DMS-273
[12] = system: DU-145
[13] = system: EKVX
[14] = system: HCC 2998
[15] = system: HCT-116
[16] = system: HCT-15
[17] = system: HL-60
[18] = system: HOP-18
[19] = system: HOP-62
[20] = system: HOP-92
[21] = system: HT-29
[22] = system: Hs-578T
[23] = system: IGROV-1
[24] = system: K562
[25] = system: KM-20L2
[26] = system: KM12
[27] = system: LOX IMVI
[28] = system: LXFL 529
[29] = system: M14
[30] = system: M19-MEL
[31] = system: MCF7
[32] = system: MDA-MB-231
[33] = system: MDA-MB-435
[34] = system: MDA-N
[35] = system: MOLT-4
[36] = system: Malme-3M
[37] = system: NCI-H226
[38] = system: NCI-H23
[39] = system: NCI-H460
[40] = system: NCI-H522
[41] = system: NCI/ADR-RES
[42] = system: OVCAR-3
[43] = system: OVCAR-4
[44] = system: OVCAR-5
[45] = system: OVCAR-8
[46] = system: PC-3
[47] = system: RPMI-8226
[48] = system: RXF 393
[49] = system: SF-268
[50] = system: SF-295
[51] = system: SF-539
[52] = system: SK-MEL-28
[53] = system: SK-MEL-2
[54] = system: SK-MEL-5
[55] = system: SK-OV-3
[56] = system: SN12C
[57] = system: SNB-19
[58] = system: SNB-75
[59] = system: SR
[60] = system: SW-620
[61] = system: T47D
[62] = system: TK-10
[63] = system: U-251
[64] = system: UACC-257
[65] = system: UACC-62
[66] = system: UO-31
[67] = system: SNB-78

## COc1ccc(C[C@@H]2NC[C@@H](O)[C@@H]2OC(C)=O)cc1
[1]
  GI50: 21.9 nM (active)
[2]
  GI50: 15.7 nM (active)
[3]
  GI50: 0.0316 µM (active)
[4]
  GI50: 11 nM (active)
[5]
  GI50: 32.9 nM (active)
[6]
  GI50: 0.0251 µM (active)
[7]
  GI50: 0.00899 µM (active)
[8]
  GI50: 0.0102 µM (active)
[9]
  GI50: 1.77 µM (inactive)
[10]
  GI50: 1.45 µM (inactive)
[11]
  GI50: 0.634 µM (active)
[12]
  GI50: 19.1 nM (active)
[13]
  GI50: 0.0475 µM (active)
[14]
  GI50: 0.0208 µM (active)
[15]
  GI50: 0.0103 µM (active)
[16]
  GI50: 17.1 nM
[17]
  GI50: 0.00374 µM (active)
[18]
  GI50: 1.73 µM (inactive)
[19]
  GI50: 0.0214 µM (active)
[20]
  GI50: 0.00618 µM (active)
[21]
  GI50: 0.0197 µM (active)
[22]
  GI50: 28.4 nM (active)
[23]
  GI50: 0.0435 µM (active)
[24]
  GI50: 0.0104 µM (active)
[25]
  GI50: 3.95 µM (inactive)
[26]
  GI50: 0.027 µM (active)
[27]
  GI50: 0.00403 µM (active)
[28]
  GI50: 1.32 µM (inactive)
[29]
  GI50: 18.5 nM (active)
[30]
  GI50: 1.79 µM (inactive)
[31]
  GI50: 0.0135 µM (active)
[32]
  GI50: 19.6 nM (active)
[33]
  GI50: 16.8 nM (active)
[34]
  GI50: 21.2 nM (active)
[35]
  GI50: 0.0105 µM (active)
[36]
  GI50: 0.0385 µM (active)
[37]
  GI50: 0.0358 µM (active)
[38]
  GI50: 0.021 µM (active)
[39]
  GI50: 0.0142 µM (active)
[40]
  GI50: 0.0232 µM (active)
[41]
  GI50: 0.0001 µM (active)
[42]
  GI50: 0.0256 µM (active)
[43]
  GI50: 0.00957 µM (active)
[44]
  GI50: 0.0198 µM (active)
[45]
  GI50: 0.0189 µM (active)
[46]
  GI50: 19.6 nM (active)
[47]
  GI50: 0.0296 µM (active)
[48]
  GI50: 0.00641 µM (active)
[49]
  GI50: 0.0232 µM (active)
[50]
  GI50: 0.0253 µM (active)
[51]
  GI50: 0.0234 µM (active)
[52]
  GI50: 0.0206 µM (active)
[53]
  GI50: 0.039 µM (active)
[54]
  GI50: 0.0104 µM (active)
[55]
  GI50: 0.0169 µM (active)
[56]
  GI50: 0.0229 µM (active)
[57]
  GI50: 0.0228 µM (active)
[58]
  GI50: 0.0132 µM (active)
[59]
  GI50: 16.4 nM (active)
[60]
  GI50: 0.0166 µM (active)
[61]
  GI50: 22.7 nM (active)
[62]
  GI50: 31.2 nM (active)
[63]
  GI50: 0.0173 µM (active)
[64]
  GI50: 0.0228 µM (active)
[65]
  GI50: 0.015 µM (active)
[66]
  GI50: 0.0247 µM (active)

## Nc1nc(=O)c2c([nH]1)NCC(CNc1ccc(C(=O)N[C@@H](CCC(=O)O)C(=O)O)cc1)N2C=O (stereo partly drawn) [LEUCOVORIN CALCIUM]
[3]
  GI50: > 125 µM (inactive)
[6]
  GI50: 102 µM (inactive)
[7]
  GI50: 39.5 µM (inactive)
[8]
  GI50: > 125 µM (inactive)
[9]
  GI50: > 125 µM (inactive)
[10]
  GI50: > 125 µM (inactive)
[11]
  GI50: > 125 µM (inactive)
[13]
  GI50: > 125 µM (inactive)
[14]
  GI50: > 125 µM (inactive)
[15]
  GI50: > 125 µM (inactive)
[16]
  GI50: > 125000 nM
[17]
  GI50: 39.5 µM (inactive)
[18]
  GI50: > 125 µM (inactive)
[19]
  GI50: > 125 µM (inactive)
[20]
  GI50: > 125 µM (inactive)
[21]
  GI50: > 125 µM (inactive)
[23]
  GI50: > 125 µM (inactive)
[24]
  GI50: 39.5 µM (inactive)
[25]
  GI50: > 125 µM (inactive)
[26]
  GI50: > 125 µM (inactive)
[27]
  GI50: > 125 µM (inactive)
[30]
  GI50: > 125 µM (inactive)
[31]
  GI50: > 125 µM (inactive)
[35]
  GI50: > 125 µM (inactive)
[36]
  GI50: > 125 µM (inactive)
[37]
  GI50: 81.1 µM (inactive)
[38]
  GI50: > 125 µM (inactive)
[39]
  GI50: > 125 µM (inactive)
[40]
  GI50: > 125 µM (inactive)
[41]
  GI50: > 125 µM (inactive)
[42]
  GI50: > 125 µM (inactive)
[43]
  GI50: > 125 µM (inactive)
[44]
  GI50: > 95.3 µM (inactive)
[45]
  GI50: 121 µM (inactive)
[47]
  GI50: > 125 µM (inactive)
[48]
  GI50: > 125 µM (inactive)
[49]
  GI50: > 125 µM (inactive)
[50]
  GI50: > 125 µM (inactive)
[51]
  GI50: > 125 µM (inactive)
[52]
  GI50: > 125 µM (inactive)
[53]
  GI50: 40.4 µM (inactive)
[54]
  GI50: > 125 µM (inactive)
[55]
  GI50: > 125 µM (inactive)
[56]
  GI50: 14.8 µM (inactive)
[57]
  GI50: > 125 µM (inactive)
[58]
  GI50: > 125 µM (inactive)
[67]
  GI50: > 125 µM (inactive)
[60]
  GI50: > 125 µM (inactive)
[63]
  GI50: > 125 µM (inactive)
[64]
  GI50: > 125 µM (inactive)
[65]
  GI50: > 125 µM (inactive)
[66]
  GI50: > 125 µM (inactive)
